According to patent US20240101531A1, “PYRIDINAMINE DERIVATIVES AND THEIR USE AS POTASSIUM CHANNEL MODULATORS” (Xenon Pharmaceuticals Inc., priority 2022, published 2024):
Structures can show the parent of a compound that is named as a salt.

Biological target: human KV7.2/KV7.3 (Homo sapiens (Human), UniProt O43525+O43526)
Assay: Potassium flux assay (IPG-2 AM dye)
Format: cell-based
Settings: TREX HEK 293 or HEK 293 cells expressing human KV7.2/KV7.3; arithmetic mean values
How it was run: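 EC50 from 16 concentrations (2-fold dilutions, top 30 μM), scaled between DMSO baseline and a known KV7.x modulator maximum. Signal is IPG-2 AM fluorescence (ex 530/em 558 nm) after 10 mM KCl challenge buffer addition, following 20 min room-temperature compound exposure of HEK 293 or TREX HEK 293 cells stably expressing human KV7.2/KV7.3.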

| EC50 | Compound |
| --- | --- |
| < 1 µM | C[C@@H](Oc1ccc2c(Nc3ccc(Cl)nc3)nccc2c1)c1cnn(C)c1 [Example 171, (R)—N-(6-chloropyridin-3-yl)-6-(1-(1-methyl-1H-pyrazol-4-yl)ethoxy)isoquinolin-1-amine] |
| 1 to 10 µM | Cc1nn(C)cc1[C@@H](C)Oc1ccc2c(Nc3ccc(Cl)nc3)nccc2c1 [Example 174, (R)—N-(6-chloropyridin-3-yl)-6-(1-(1,3-dimethyl-1H-pyrazol-4-yl)ethoxy)isoquinolin-1-amine] |
| 1 to 10 µM | COC1(COc2ccc3c(Nc4cnc(C)nc4)nccc3c2)CC1 [Example 178, 6-((1-methoxycyclopropyl)methoxy)-N-(2-methylpyrimidin-5-yl)isoquinolin-1-amine] |
| 1 to 10 µM | CC1(COc2ccc3c(Nc4ccc(Cl)nc4)nccc3c2)CC1 [Example 179, N-(6-chloropyridin-3-yl)-6-((1-methylcyclopropyl)methoxy)isoquinolin-1-amine] |
| 10 to 30 µM | Clc1ccc(Nc2nccc3cc(OCCC4CC4)ccc23)cn1 [Example 180, N-(6-chloropyridin-3-yl)-6-(2-cyclopropylethoxy)isoquinolin-1-amine] |
| < 1 µM | FC1(COc2ccc3c(Nc4ccc(Cl)nc4)nccc3c2)CC1 [Example 181, N-(6-chloropyridin-3-yl)-6-((1-fluorocyclopropyl)methoxy)isoquinolin-1-amine] |
| 1 to 10 µM | Clc1ccc(Nc2nccc3cc(OCCCn4ccnc4)ccc23)cn1 [Example 185, 6-(3-(1H-imidazol-1-yl)propoxy)-N-(6-chloropyridin-3-yl)isoquinolin-1-amine] |
| < 1 µM | COc1cc(Nc2nccc3cc(OCC4(C)COC4)ccc23)cnc1C [Example 187, N-(5-methoxy-6-methylpyridin-3-yl)-6-((3-methyloxetan-3-yl)methoxy)isoquinolin-1-amine formate] |
| 1 to 10 µM | CCn1ccc(COc2ccc3c(Nc4ccc(Cl)nc4)nccc3c2)n1 [Example 188, N-(6-chloropyridin-3-yl)-6-((1-ethyl-1H-pyrazol-3-yl)methoxy)isoquinolin-1-amine formate] |
| < 1 µM | Cc1ncc(Nc2nccc3cc(OCC4(F)CC4)ccc23)cn1 [Example 189, 6-((1-fluorocyclopropyl)methoxy)-N-(2-methylpyrimidin-5-yl)isoquinolin-1-amine] |
| 1 to 10 µM | CS(=O)(=O)CCCOc1ccc2c(Nc3ccc(Cl)nc3)nccc2c1 [Example 191, N-(6-chloropyridin-3-yl)-6-(3-(methylsulfonyl)propoxy)isoquinolin-1-amine] |
| 1 to 10 µM | Clc1ccc(Nc2nccc3cc(OCc4ncccn4)ccc23)cn1 [Example 193, N-(6-chloropyridin-3-yl)-6-(pyrimidin-2-ylmethoxy)isoquinolin-1-amine] |
| < 1 µM | Cc1ccc(COc2ccc3c(Nc4ccc(Cl)nc4)nccc3c2)cn1 [Example 194, N-(6-chloropyridin-3-yl)-6-((6-methylpyridin-3-yl)methoxy)isoquinolin-1-amine] |
| < 1 µM | Clc1ccc(Nc2nccc3cc(OCc4cccnc4)ccc23)cn1 [Example 195, N-(6-chloropyridin-3-yl)-6-(pyridin-3-ylmethoxy)isoquinolin-1-amine] |
| < 1 µM | Cn1cc(COc2ccc3c(Nc4ccc(Cl)nc4)nccc3c2)cn1 [Example 196, N-(6-chloropyridin-3-yl)-6-((1-methyl-1H-pyrazol-4-yl)methoxy)isoquinolin-1-amine] |
| 1 to 10 µM | Cn1ccnc1COc1ccc2c(Nc3ccc(Cl)nc3)nccc2c1 [Example 198, N-(6-chloropyridin-3-yl)-6-((1-methyl-1H-imidazol-2-yl)methoxy)isoquinolin-1-amine] |
| 1 to 10 µM | Cc1ccc(Nc2nccc3cc(OCc4ccncc4)ccc23)cn1 [Example 200, N-(6-methylpyridin-3-yl)-6-(pyridin-4-ylmethoxy)isoquinolin-1-amine] |
| 1 to 10 µM | Clc1ccc(Nc2nccc3cc(OCCN4CCOCC4)ccc23)cn1 [Example 201, N-(6-chloropyridin-3-yl)-6-(2-morpholinoethoxy)isoquinolin-1-amine] |
| < 1 µM | Cn1ccc(COc2ccc3c(Nc4cnc(Cl)nc4)nccc3c2)n1 [Example 203, N-(2-chloropyrimidin-5-yl)-6-((1-methyl-1H-pyrazol-3-yl)methoxy)isoquinolin-1-amine] |
| < 1 µM | Cc1ncc(Nc2nccc3cc(OCc4cnn(C)c4)ccc23)cn1 [Example 205, 6-((1-methyl-1H-pyrazol-4-yl)methoxy)-N-(2-methylpyrimidin-5-yl)isoquinolin-1-amine] |
| 1 to 10 µM | Cc1ncc(Nc2nccc3cc(OCc4ccn(C)n4)ccc23)cn1 [Example 206, 6-((1-methyl-1H-pyrazol-3-yl)methoxy)-N-(2-methylpyrimidin-5-yl)isoquinolin-1-amine] |
| < 1 µM | N#CC1(COc2ccc3c(Nc4cnc(Cl)nc4)nccc3c2)COC1 [Example 208, 3-(((1-((2-chloropyrimidin-5-yl)amino)isoquinolin-6-yl)oxy)methyl)oxetane-3-carbonitrile] |
| < 1 µM | CC1(COc2ccc3c(Nc4ccc(Cl)nc4)nccc3c2)COC1 [Example 210, N-(6-chloropyridin-3-yl)-6-((3-methyloxetan-3-yl)methoxy)isoquinolin-1-amine] |
| 1 to 10 µM | Clc1ccc(Nc2nccc3cc(OCc4ncco4)ccc23)cn1 [Example 211, N-(6-chloropyridin-3-yl)-6-(oxazol-2-ylmethoxy)isoquinolin-1-amine] |
| < 1 µM | Clc1ccc(Nc2nccc3cc(OCc4ccon4)ccc23)cn1 [Example 215, N-(6-chloropyridin-3-yl)-6-(isoxazol-3-ylmethoxy)isoquinolin-1-amine] |

Continued, compound first:

| Compound | EC50 |
| --- | --- |
| C[C@H](Oc1ccc2c(Nc3ccc(Cl)nc3)nccc2c1)c1cnn(C)c1 [Example 172, (S)—N-(6-chloropyridin-3-yl)-6-(1-(1-methyl-1H-pyrazol-4-yl)ethoxy)isoquinolin-1-amine] | < 1 µM |
| Cc1nn(C)cc1[C@H](C)Oc1ccc2c(Nc3ccc(Cl)nc3)nccc2c1 [Example 175, (S)—N-(6-chloropyridin-3-yl)-6-(1-(1,3-dimethyl-1H-pyrazol-4-yl)ethoxy)isoquinolin-1-amine] | 1 to 10 µM |
| CC(C)C(C)(N)COc1ccc2c(Nc3ccc(Cl)nc3)nccc2c1 (centres unmarked) [Example 176, 6-(2-amino-2,3-dimethylbutoxy)-N-(6-chloropyridin-3-yl)isoquinolin-1-amine hydrochloride] | 10 to 30 µM |
| COC1(COc2ccc3c(Nc4ccc(Cl)nc4)nccc3c2)CC1 [Example 177, N-(6-chloropyridin-3-yl)-6-((1-methoxycyclopropyl)methoxy)isoquinolin-1-amine] | < 1 µM |
| Clc1ccc(Nc2nccc3cc(OCc4cncnc4)ccc23)cn1 [Example 182, N-(6-chloropyridin-3-yl)-6-(pyrimidin-5-ylmethoxy)isoquinolin-1-amine] | < 1 µM |
| Clc1ccc(Nc2nccc3cc(OCCc4ccccn4)ccc23)cn1 [Example 183, N-(6-chloropyridin-3-yl)-6-(2-(pyridin-2-yl)ethoxy)isoquinolin-1-amine] | 1 to 10 µM |
| FC(F)(F)OCCOc1ccc2c(Nc3ccc(Cl)nc3)nccc2c1 [Example 184, N-(6-chloropyridin-3-yl)-6-(2-(trifluoromethoxy)ethoxy)isoquinolin-1-amine] | 1 to 10 µM |
| COc1ncc(COc2ccc3c(Nc4ccc(Cl)nc4)nccc3c2)cn1 [Example 186, N-(6-chloropyridin-3-yl)-6-((2-methoxypyrimidin-5-yl)methoxy)isoquinolin-1-amine] | 1 to 10 µM |
| Cc1ccc(Nc2nccc3cc(OCC4(F)CC4)ccc23)cn1 [Example 190, 6-((1-fluorocyclopropyl)methoxy)-N-(6-methylpyridin-3-yl)isoquinolin-1-amine] | 1 to 10 µM |
| Clc1ccc(Nc2nccc3cc(OCc4ccncc4)ccc23)cn1 [Example 192, N-(6-chloropyridin-3-yl)-6-(pyridin-4-ylmethoxy)isoquinolin-1-amine] | < 1 µM |
| Clc1ccc(Nc2nccc3cc(OC4CCOCC4)ccc23)cn1 [Example 197, N-(6-chloropyridin-3-yl)-6-((tetrahydro-2H-pyran-4-yl)oxy)isoquinolin-1-amine] | < 1 µM |
| Cc1ncc(Nc2nccc3cc(OCc4ccncc4)ccc23)cn1 [Example 199, N-(2-methylpyrimidin-5-yl)-6-(pyridin-4-ylmethoxy)isoquinolin-1-amine] | 1 to 10 µM |
| Clc1ncc(Nc2nccc3cc(OCc4ccncc4)ccc23)cn1 [Example 202, N-(2-chloropyrimidin-5-yl)-6-(pyridin-4-ylmethoxy)isoquinolin-1-amine] | < 1 µM |
| Cc1cn(C)nc1COc1ccc2c(Nc3ccc(Cl)nc3)nccc2c1 [Example 204, N-(6-chloropyridin-3-yl)-6-((1,4-dimethyl-1H-pyrazol-3-yl)methoxy)isoquinolin-1-amine] | 1 to 10 µM |
| N#CC1(COc2ccc3c(Nc4cnc(Cl)nc4)nccc3c2)CC1 [Example 207, 1-(((1-((2-chloropyrimidin-5-yl)amino)isoquinolin-6-yl)oxy)methyl)cyclopropane-1-carbonitrile] | < 1 µM |
| CC1(C)CC(COc2ccc3c(Nc4ccc(Cl)nc4)nccc3c2)O1 (centres unmarked) [Example 209, N-(6-chloropyridin-3-yl)-6-((4,4-dimethyloxetan-2-yl)methoxy)isoquinolin-1-amine] | 1 to 10 µM |
| Clc1ccc(Nc2nccc3cc(OCc4nccs4)ccc23)cn1 [Example 212, N-(6-chloropyridin-3-yl)-6-(thiazol-2-ylmethoxy)isoquinolin-1-amine] | 1 to 10 µM |
| Clc1ncc(Nc2nccc3cc(OCC4COC4)ccc23)cn1 [Example 213, N-(2-chloropyrimidin-5-yl)-6-(oxetan-3-ylmethoxy)isoquinolin-1-amine] | < 1 µM |
| Cc1ccc(Nc2nccc3cc(OCC4COC4)ccc23)cn1 [Example 214, N-(6-methylpyridin-3-yl)-6-(oxetan-3-ylmethoxy)isoquinolin-1-amine] | 1 to 10 µM |
